Data: PMC9854539, “QSAR Studies, Molecular Docking, Molecular Dynamics, Synthesis, and Biological Evaluation of Novel Quinolinone-Based Thiosemicarbazones against Mycobacterium tuberculosis” (Antibiotics, 2022)
≈ marks a conversion by molar mass, not a printed value. Where “and” joins values, the source holds several entries; their conditions need not be identical. Identical values can stand only once.

Assays:
M. bovis BCG = test: microbe, parasite or virus in culture; type: cell-based; conditions: for Selectivity Index (SI) (SI = IC50/MIC) a: IC50 Vero / MIC M. bovis BCG; for MIC: Mycobacterium tuberculosis variant bovis BCG, BCG, read-out: MIC M. bovis BCG
M. tuberculosis H37Rv = test: Spot culture growth inhibition assay (SPOTi), MIC; type: cell-based, Mycobacterium tuberculosis; conditions: for Selectivity Index (SI) (SI = IC50/MIC) b: IC50 Vero / MIC M. tuberculosis H37Rv; for MIC: Mycobacterium tuberculosis, H37RV, SPOTi, 2–3 weeks at 37 °C
M. tuberculosis Orphan = test: Spot culture growth inhibition assay (SPOTi), MIC; type: cell-based, Mycobacterium tuberculosis; conditions: IC50 Vero / MIC M. tuberculosis orphan
M. tuberculosis Beijing = test: Spot culture growth inhibition assay (SPOTi), MIC; type: cell-based, Mycobacterium tuberculosis; conditions: for Selectivity Index (SI) (SI = IC50/MIC) d: IC50 Vero / MIC M. tuberculosis Beijing
M. tuberculosis LAM 9 = test: Spot culture growth inhibition assay (SPOTi), MIC; type: cell-based, Mycobacterium tuberculosis; conditions: IC50 Vero / MIC M. tuberculosis LAM 9 (sit 42)
M. tuberculosis Haarlem = test: Spot culture growth inhibition assay (SPOTi), MIC; type: cell-based, Mycobacterium tuberculosis; conditions: IC50 Vero / MIC M. tuberculosis Haarlem
[1] = test system: M. tuberculosis ATCC 35838; test: Spot culture growth inhibition assay (SPOTi), MIC; type: cell-based, Mycobacterium tuberculosis; conditions: IC50 Vero / MIC M. tuberculosis ATCC 35838 RR
[2] = test system: M. tuberculosis ATCC 35822; test: Spot culture growth inhibition assay (SPOTi), MIC; type: cell-based, Mycobacterium tuberculosis; conditions: IC50 Vero / MIC M. tuberculosis ATCC 35822 RI
MTT cytotoxicity assay = conditions: African green monkey
[3] = test system: M. tuberculosis H37RV strain; set-up: method as in earlier work; conditions: cited from earlier work; for MIC: observed activity of QSAR data set; for MIC exp (log (1/molarMIC)): pMIC from literature MIC in mol/L

CC(/C=C/c1cc2cc(C)ccc2[nH]c1=O)=N\NC(N)=S [Compound 11b, (E)-2-((E)-4-(6-Methyl-2-oxo-1,2-dihydroquinolin-3-yl)but-3-en-2-ylidene)hydrazine-1-carbothioamide]
Selectivity Index (SI) (SI = IC50/MIC) a (M. bovis BCG): 22.06 | MIC (M. bovis BCG): 0.16 µM (≈ 0.0481 µg/mL) | Selectivity Index (SI) (SI = IC50/MIC) b (M. tuberculosis H37Rv): 22.06 | MIC (M. tuberculosis H37Rv): 0.16 µM (≈ 0.0481 µg/mL) | Selectivity Index (SI) (SI = IC50/MIC) c (M. tuberculosis Orphan): 0.11 | Selectivity Index (SI) (SI = IC50/MIC) d (M. tuberculosis Beijing): 2.13 | Selectivity Index (SI) (SI = IC50/MIC) e (M. tuberculosis LAM 9): 0.21 | Selectivity Index (SI) (SI = IC50/MIC) f (M. tuberculosis Haarlem): 1.06 | Selectivity Index (SI) (SI = IC50/MIC) g [1]: 1.06 | Selectivity Index (SI) (SI = IC50/MIC) h [2]: 1.06 | IC50 at 48 h (MTT cytotoxicity assay): 3.53 µM

CC(/C=C/c1cc2cccc(C)c2[nH]c1=O)=N\NC(N)=S [Compound 11c, (E)-2-((E)-4-(8-Methyl-2-oxo-1,2-dihydroquinolin-3-yl)but-3-en-2-ylidene)hydrazine-1-carbothioamide]
Selectivity Index (SI) (SI = IC50/MIC) a (M. bovis BCG): 5.75 | MIC (M. bovis BCG): 0.33 µM (≈ 0.0991 µg/mL) | Selectivity Index (SI) (SI = IC50/MIC) b (M. tuberculosis H37Rv): 11.88 | MIC (M. tuberculosis H37Rv): 0.16 µM (≈ 0.0481 µg/mL) | Selectivity Index (SI) (SI = IC50/MIC) c (M. tuberculosis Orphan): 0.03 | Selectivity Index (SI) (SI = IC50/MIC) d (M. tuberculosis Beijing): 5.76 | Selectivity Index (SI) (SI = IC50/MIC) e (M. tuberculosis LAM 9): 0.58 | Selectivity Index (SI) (SI = IC50/MIC) f (M. tuberculosis Haarlem): 0.06 | Selectivity Index (SI) (SI = IC50/MIC) g [1]: 1.14 | Selectivity Index (SI) (SI = IC50/MIC) h [2]: 5.76 | melting point: 241 °C | IC50 at 48 h (MTT cytotoxicity assay): 1.9 µM

CC(/C=C/c1cc2ccc(Cl)cc2[nH]c1=O)=N\NC(N)=S [Compound 11d, (E)-2-((E)-4-(7-Chloro-2-oxo-1,2-dihydroquinolin-3-yl)but-3-en-2-ylidene)hydrazine-1-carbothioamide]
Selectivity Index (SI) (SI = IC50/MIC) a (M. bovis BCG): 55.00 | MIC (M. bovis BCG): 0.03 µM (≈ 0.00962 µg/mL) | Selectivity Index (SI) (SI = IC50/MIC) b (M. tuberculosis H37Rv): 11.00 | MIC (M. tuberculosis H37Rv): 0.15 µM (≈ 0.0481 µg/mL) | Selectivity Index (SI) (SI = IC50/MIC) c (M. tuberculosis Orphan): 0.26 | Selectivity Index (SI) (SI = IC50/MIC) d (M. tuberculosis Beijing): 5.00 | Selectivity Index (SI) (SI = IC50/MIC) e (M. tuberculosis LAM 9): 0.53 | Selectivity Index (SI) (SI = IC50/MIC) f (M. tuberculosis Haarlem): 1.06 | Selectivity Index (SI) (SI = IC50/MIC) g [1]: 0.50 | Selectivity Index (SI) (SI = IC50/MIC) h [2]: 0.26 | melting point: 246 °C | IC50 at 48 h (MTT cytotoxicity assay): 1.65 µM

CC(/C=C/c1cc2cc(Br)ccc2[nH]c1=O)=N\NC(N)=S [Compound 11e, (E)-2-((E)-4-(6-Bromo-2-oxo-1,2-dihydroquinolin-3-yl)but-3-en-2-ylidene)hydrazine-1-carbothioamide]
Selectivity Index (SI) (SI = IC50/MIC) a (M. bovis BCG): 16.92 | MIC (M. bovis BCG): 0.13 µM (≈ 0.0475 µg/mL) | Selectivity Index (SI) (SI = IC50/MIC) b (M. tuberculosis H37Rv): 16.92 | MIC (M. tuberculosis H37Rv): 0.13 µM (≈ 0.0475 µg/mL) | Selectivity Index (SI) (SI = IC50/MIC) c (M. tuberculosis Orphan): 0.08 | Selectivity Index (SI) (SI = IC50/MIC) d (M. tuberculosis Beijing): 8.15 | potency relative to Oxafloxacin (M. tuberculosis Beijing; M. tuberculosis Beijing): tenfold more potent than Oxafloxacin | Selectivity Index (SI) (SI = IC50/MIC) e (M. tuberculosis LAM 9): 0.80 | Selectivity Index (SI) (SI = IC50/MIC) f (M. tuberculosis Haarlem): 0.08 | Selectivity Index (SI) (SI = IC50/MIC) g [1]: 0.81 | Selectivity Index (SI) (SI = IC50/MIC) h [2]: 1.61 | melting point: 253 °C | IC50 at 48 h (MTT cytotoxicity assay): 2.2 µM

O=C(NCCNc1ccnc2cc(Cl)ccc12)Nc1ccc(Cl)cc1 [Compound 18]
MIC [3]: 10.65 µM (≈ 4 µg/mL) | MIC exp (log (1/molarMIC)) [3]: 4.97

O=[N+]([O-])c1ccc(N2CCN(c3ccnc4cc(Cl)ccc34)CC2)c2nonc12 [Compound 19]
MIC [3]: 7.26 µM (≈ 2.98 µg/mL) | MIC exp (log (1/molarMIC)) [3]: 5.13

O=C(NNc1ccnc2cc(Cl)ccc12)c1ccccc1N=Cc1ccc(F)cc1 [Compound 20]
MIC [3]: 6.25 µM (≈ 2.62 µg/mL) | MIC exp (log (1/molarMIC)) [3]: 5.2

O=C(NNc1ccnc2cc(Cl)ccc12)c1ccccc1N=Cc1ccc(Br)cc1 [Compound 21]
MIC [3]: 6.25 µM (≈ 3 µg/mL) | MIC exp (log (1/molarMIC)) [3]: 5.2

O=C(NNc1ccnc2cc(Cl)ccc12)c1ccccc1N=Cc1ccc(Cl)cc1Cl [Compound 22]
MIC [3]: 6.25 µM (≈ 2.94 µg/mL) | MIC exp (log (1/molarMIC)) [3]: 5.20

COc1ccc(C=Nc2ccccc2C(=O)NNc2ccnc3cc(Cl)ccc23)cc1OC [Compound 23]
MIC [3]: 6.25 µM (≈ 2.88 µg/mL) | MIC exp (log (1/molarMIC)) [3]: 5.20

COc1cc(C=Nc2ccccc2C(=O)NNc2ccnc3cc(Cl)ccc23)cc(OC)c1OC [Compound 24]
MIC [3]: 6.25 µM (≈ 3.07 µg/mL) | MIC exp (log (1/molarMIC)) [3]: 5.20

O=C(NNc1ccnc2cc(Cl)ccc12)c1ccccc1N=Cc1ccc(-c2cccs2)cc1 [Compound 25]
MIC [3]: 6.25 µM (≈ 3.02 µg/mL) | MIC exp (log (1/molarMIC)) [3]: 5.20

O=C(NNc1ccnc2cc(Cl)ccc12)c1ccccc1N=CC=Cc1ccccc1 [Compound 26]
MIC [3]: 3.12 µM (≈ 1.33 µg/mL) | MIC exp (log (1/molarMIC)) [3]: 5.51

Cc1nc2ccccc2c(-c2ccccc2)c1C(=O)c1ccccc1 [Compound 27]
MIC [3]: 19.33 µM (≈ 6.25 µg/mL) | MIC exp (log (1/molarMIC)) [3]: 4.71

CC(=O)c1c(C)nc2ccc(Cl)cc2c1-c1ccccc1 [Compound 28]
MIC [3]: 10.57 µM (≈ 3.13 µg/mL) | MIC exp (log (1/molarMIC)) [3]: 4.98

c1ccc(-c2c3c(nc4ccccc24)CCCCC3)cc1 [Compound 29]
MIC [3]: 45.73 µM (≈ 12.5 µg/mL) | MIC exp (log (1/molarMIC)) [3]: 4.34

CC1CC(=O)c2c(nc3ccccc3c2-c2ccccc2)C1 (centres unmarked) [Compound 30]
MIC [3]: 21.75 µM (≈ 6.25 µg/mL) | MIC exp (log (1/molarMIC)) [3]: 4.66

CC1(C)CC(=O)c2c(nc3ccccc3c2-c2ccccc2)C1 [Compound 31]
MIC [3]: 20.74 µM (≈ 6.25 µg/mL) | MIC exp (log (1/molarMIC)) [3]: 4.68

O=C1CC(c2ccccc2)Cc2nc3ccccc3c(-c3ccccc3)c21 (centres unmarked) [Compound 32]
MIC [3]: 35.77 µM (≈ 12.5 µg/mL) | MIC exp (log (1/molarMIC)) [3]: 4.45

c1ccc(-c2cc(-c3ccccc3)c3ccccc3n2)cc1 [Compound 33]
MIC [3]: 11.11 µM (≈ 3.13 µg/mL) | MIC exp (log (1/molarMIC)) [3]: 4.95

c1ccc(-c2cc(Cc3ccco3)nc3ccccc23)cc1 [Compound 34]
MIC [3]: 21.75 µM (≈ 6.21 µg/mL) | MIC exp (log (1/molarMIC)) [3]: 4.66

COc1ccc(NC(=O)c2c(C)nc3ccccc3c2-c2ccccc2)cc1 [Compound 35]
MIC [3]: 8.48 µM (≈ 3.12 µg/mL) | MIC exp (log (1/molarMIC)) [3]: 5.07

Cc1nc2ccccc2c(-c2ccccc2)c1C(=O)Nc1ccc(F)cc1 [Compound 36]
MIC [3]: 16.76 µM (≈ 5.97 µg/mL) | MIC exp (log (1/molarMIC)) [3]: 4.78

Cc1nc2ccccc2c(-c2ccccc2)c1C(=O)Nc1ccc(Cl)cc1 [Compound 37]
MIC [3]: 17.54 µM (≈ 6.54 µg/mL) | MIC exp (log (1/molarMIC)) [3]: 4.76

Cc1nc2ccccc2c(-c2ccccc2)c1C(=O)Nc1ccc(Br)cc1 [Compound 38]
MIC [3]: 30.92 µM (≈ 12.9 µg/mL) | MIC exp (log (1/molarMIC)) [3]: 4.51

Cc1nc2ccccc2c(-c2ccccc2)c1C(=O)Nc1ccccc1Cl [Compound 39]
MIC [3]: 33.53 µM and 18.42 µM | MIC exp (log (1/molarMIC)) [3]: 4.47 and 4.73

Cc1nc2ccccc2c(-c2ccccc2)c1C(=O)NCc1ccccc1Cl [Compound 43]
MIC [3]: 64.42 µM (≈ 24.9 µg/mL) | MIC exp (log (1/molarMIC)) [3]: 4.19

Cc1nc2ccccc2c(-c2ccccc2)c1C(=O)NCc1ccc(C(C)(C)C)cc1 [Compound 44]
MIC [3]: 33.75 µM (≈ 13.8 µg/mL) | MIC exp (log (1/molarMIC)) [3]: 4.47

NNC(=O)c1ccncc1 [Isoniazid, reference compound]
MIC (M. bovis BCG): 0.36 µM (≈ 0.0494 µg/mL) | MIC (M. tuberculosis H37Rv): 0.36 µM (≈ 0.0494 µg/mL)
